Earlier results as cited in patent publication US9271959B2, “Bicyclic tetrahydropyrrole compounds” (Laboratorios del Dr. Esteve, S.A., priority 2006, dated 2016).

Assays:
sigma (σ-2) site = sigma (σ-2) site (Homo sapiens, UniProt Q5BJF2)
sigma 1 (σ-1) site = sigma 1 (σ-1) site (Homo sapiens, UniProt Q99720)
Sequence of sigma 1 (σ-1) site (Q99720 whole entry): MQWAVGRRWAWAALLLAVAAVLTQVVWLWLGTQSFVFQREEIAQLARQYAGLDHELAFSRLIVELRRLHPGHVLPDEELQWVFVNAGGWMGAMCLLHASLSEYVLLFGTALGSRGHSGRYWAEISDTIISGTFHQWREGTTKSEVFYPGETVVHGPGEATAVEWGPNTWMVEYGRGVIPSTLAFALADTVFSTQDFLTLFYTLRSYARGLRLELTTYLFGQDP

Sequence of sigma (σ-2) site (Q5BJF2 whole entry): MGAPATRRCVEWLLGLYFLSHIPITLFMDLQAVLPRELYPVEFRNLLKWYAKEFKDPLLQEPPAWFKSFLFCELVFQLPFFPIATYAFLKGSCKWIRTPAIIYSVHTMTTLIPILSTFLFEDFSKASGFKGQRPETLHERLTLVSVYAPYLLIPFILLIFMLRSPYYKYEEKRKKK

For SKF 10047, the “affinity for the sigma (σ-2) site” value (sigma (σ-2) site) is given as “micromolar affinity” and the “affinity for the sigma 1 (σ-1) site” value (sigma 1 (σ-1) site) is given as “nanomolar affinity”.
